According to ChEMBL document CHEMBL3885881, “DrugMatrix”:

Species on record: Rattus norvegicus
Test: DrugMatrix - Regimen: Daily Repeat
Assay type: toxicity, organism-based, Sprague-Dawley
Parameters: regimen Daily Repeat, gender Male, age 6-8 weeks
Conditions: in vivo, po, route oral GAVAGE, vehicle .5 % CMC; for ABSOLUTE BASOPHIL / ABSOLUTE EOSINOPHIL / ABSOLUTE LYMPHOCYTE / ABSOLUTE MONOCYTE / ABSOLUTE SEGMENTED NEUTROPHIL / BASOPHIL / EOSINOPHIL / ERYTHROCYTE COUNT / HEMATOCRIT / HEMOGLOBIN / LEUKOCYTE COUNT / LYMPHOCYTE / MEAN CORPUSCULAR HEMOGLOBIN / MEAN CORPUSCULAR HEMOGLOBIN CONCENTRATION / MEAN CORPUSCULAR VOLUME / MONOCYTE / NEUTROPHIL / NUCLEATED RED BLOOD CELLS / PLATELET COUNT: tissue Blood; for ALANINE AMINOTRANSFERASE / ALBUMIN / ALKALINE PHOSPHATASE / ASPARTATE AMINOTRANSFERASE / BLOOD UREA NITROGEN / CARBON DIOXIDE / CHLORIDE / CHOLESTEROL / CREATINE PHOSPHOKINASE / CREATININE / GLUCOSE / LACTATE DEHYDROGENASE / LIPASE / PHOSPHORUS / POTASSIUM / SODIUM / TOTAL BILIRUBIN / TOTAL PROTEIN / URIC ACID: tissue Plasma
[1] = 50 mg/kg, 72 h, dose level Low, time 3 day
[2] = 50 mg/kg, 120 h, dose level Low, time 5 day
[3] = 1500 mg/kg, 72 h, dose level High, time 3 day
[4] = 1500 mg/kg, 120 h, dose level High, time 5 day

Which results are given for `CC[C@H]1OC(=O)[C@H](C)[C@@H](O[C@H]2C[C@@](C)(OC)[C@@H](O)[C@H](C)O2)[C@H](C)[C@@H](O[C@@H]2O[C@H](C)C[C@H](N(C)C)[C@H]2O)[C@](C)(O)C[C@@H](C)C(=O)[C@H](C)[C@@H](O)[C@]1(C)O` [ERYTHROMYCIN]?
ABSOLUTE BASOPHIL [1]: 0 CELLS/uL; ABSOLUTE EOSINOPHIL [1]: 38.33 CELLS/uL; ABSOLUTE LYMPHOCYTE [1]: 15941.33 CELLS/uL; ABSOLUTE MONOCYTE [1]: 389.67 CELLS/uL; ABSOLUTE SEGMENTED NEUTROPHIL [1]: 1297.33 CELLS/uL; BASOPHIL [1]: 0%; EOSINOPHIL [1]: 0.33%; ERYTHROCYTE COUNT [1]: 5.45 x10E6/uL; HEMATOCRIT [1]: 34.13%; HEMOGLOBIN [1]: 13.53 G/DL; LEUKOCYTE COUNT [1]: 17.67 x10E3/uL; LYMPHOCYTE [1]: 89.67%; MEAN CORPUSCULAR HEMOGLOBIN [1]: 24.9 pg; MEAN CORPUSCULAR HEMOGLOBIN CONCENTRATION [1]: 39.67 G/DL; MEAN CORPUSCULAR VOLUME [1]: 62.7 fL; MONOCYTE [1]: 2%; NEUTROPHIL [1]: 8%; NUCLEATED RED BLOOD CELLS [1]: 0 /100WBC; PLATELET COUNT [1]: 1119.67 x10E3/uL; ALANINE AMINOTRANSFERASE [1]: 49.33 u/L; ALBUMIN [1]: 4.3 G/DL; ALKALINE PHOSPHATASE [1]: 366 u/L; ASPARTATE AMINOTRANSFERASE [1]: 81 u/L; BLOOD UREA NITROGEN [1]: 14.67 mg/dL; CARBON DIOXIDE [1]: 28.33 mmol/L; CHLORIDE [1]: 99.33 MEQ/L; CHOLESTEROL [1]: 80 mg/dL; CREATINE PHOSPHOKINASE [1]: 238.67 u/L; CREATININE [1]: 0.19 mg/dL; GLUCOSE [1]: 154 mg/dL; LACTATE DEHYDROGENASE [1]: 152.67 u/L; LIPASE [1]: 9 u/L; PHOSPHORUS [1]: 12 mg/dL; POTASSIUM [1]: 6.83 MEQ/L; SODIUM [1]: 143.9 MEQ/L; TOTAL BILIRUBIN [1]: 0.27 mg/dL; TOTAL PROTEIN [1]: 6 G/DL; URIC ACID [1]: 1.57 mg/dL; ABSOLUTE BASOPHIL [2]: 0 CELLS/uL; ABSOLUTE EOSINOPHIL [2]: 0 CELLS/uL; ABSOLUTE LYMPHOCYTE [2]: 13393.67 CELLS/uL; ABSOLUTE MONOCYTE [2]: 52.33 CELLS/uL; ABSOLUTE SEGMENTED NEUTROPHIL [2]: 520.67 CELLS/uL; BASOPHIL [2]: 0%; EOSINOPHIL [2]: 0%; ERYTHROCYTE COUNT [2]: 4.88 x10E6/uL; HEMATOCRIT [2]: 31.9%; HEMOGLOBIN [2]: 12.4 G/DL; LEUKOCYTE COUNT [2]: 13.97 x10E3/uL; LYMPHOCYTE [2]: 96%; MEAN CORPUSCULAR HEMOGLOBIN [2]: 25.47 pg; MEAN CORPUSCULAR HEMOGLOBIN CONCENTRATION [2]: 38.87 G/DL; MEAN CORPUSCULAR VOLUME [2]: 65.47 fL; MONOCYTE [2]: 0.33%; NEUTROPHIL [2]: 3.67%; NUCLEATED RED BLOOD CELLS [2]: 1 /100WBC; PLATELET COUNT [2]: 1227.33 x10E3/uL; ALANINE AMINOTRANSFERASE [2]: 45 u/L; ALBUMIN [2]: 4.23 G/DL; ALKALINE PHOSPHATASE [2]: 454.67 u/L; ASPARTATE AMINOTRANSFERASE [2]: 86.33 u/L; BLOOD UREA NITROGEN [2]: 15.33 mg/dL; CARBON DIOXIDE [2]: 25.67 mmol/L; CHLORIDE [2]: 104 MEQ/L; CHOLESTEROL [2]: 39 mg/dL; CREATINE PHOSPHOKINASE [2]: 315.67 u/L; CREATININE [2]: 0.19 mg/dL; GLUCOSE [2]: 170 mg/dL; LACTATE DEHYDROGENASE [2]: 199 u/L; LIPASE [2]: 7.67 u/L; PHOSPHORUS [2]: 10.83 mg/dL; POTASSIUM [2]: 6.66 MEQ/L; SODIUM [2]: 143.43 MEQ/L; TOTAL BILIRUBIN [2]: 0.27 mg/dL; TOTAL PROTEIN [2]: 6.13 G/DL; URIC ACID [2]: 1.5 mg/dL; ABSOLUTE BASOPHIL [3]: 0 CELLS/uL; ABSOLUTE EOSINOPHIL [3]: 0 CELLS/uL; ABSOLUTE LYMPHOCYTE [3]: 15179 CELLS/uL; ABSOLUTE MONOCYTE [3]: 91.33 CELLS/uL; ABSOLUTE SEGMENTED NEUTROPHIL [3]: 1229.67 CELLS/uL; BASOPHIL [3]: 0%; EOSINOPHIL [3]: 0%; ERYTHROCYTE COUNT [3]: 6.59 x10E6/uL; HEMATOCRIT [3]: 42.83%; HEMOGLOBIN [3]: 16.43 G/DL; LEUKOCYTE COUNT [3]: 16.5 x10E3/uL; LYMPHOCYTE [3]: 91%; MEAN CORPUSCULAR HEMOGLOBIN [3]: 24.97 pg; MEAN CORPUSCULAR HEMOGLOBIN CONCENTRATION [3]: 38.43 G/DL; MEAN CORPUSCULAR VOLUME [3]: 64.9 fL; MONOCYTE [3]: 0.67%; NEUTROPHIL [3]: 8.33%; NUCLEATED RED BLOOD CELLS [3]: 0 /100WBC; PLATELET COUNT [3]: 1070 x10E3/uL; ALANINE AMINOTRANSFERASE [3]: 65.33 u/L; ALBUMIN [3]: 4.03 G/DL; ALKALINE PHOSPHATASE [3]: 390 u/L; ASPARTATE AMINOTRANSFERASE [3]: 86.33 u/L; BLOOD UREA NITROGEN [3]: 9.33 mg/dL; CARBON DIOXIDE [3]: 34 mmol/L; CHLORIDE [3]: 100 MEQ/L; CHOLESTEROL [3]: 106.33 mg/dL; CREATINE PHOSPHOKINASE [3]: 328 u/L; CREATININE [3]: 0.16 mg/dL; GLUCOSE [3]: 137.67 mg/dL; LACTATE DEHYDROGENASE [3]: 131 u/L; LIPASE [3]: 9 u/L; PHOSPHORUS [3]: 12.3 mg/dL; POTASSIUM [3]: 6.72 MEQ/L; SODIUM [3]: 144.47 MEQ/L; TOTAL BILIRUBIN [3]: 0.1 mg/dL; TOTAL PROTEIN [3]: 6.17 G/DL; URIC ACID [3]: 2.13 mg/dL; ABSOLUTE BASOPHIL [4]: 0 CELLS/uL; ABSOLUTE EOSINOPHIL [4]: 0 CELLS/uL; ABSOLUTE LYMPHOCYTE [4]: 14587.33 CELLS/uL; ABSOLUTE MONOCYTE [4]: 796.67 CELLS/uL; ABSOLUTE SEGMENTED NEUTROPHIL [4]: 1949.33 CELLS/uL; BASOPHIL [4]: 0%; EOSINOPHIL [4]: 0%; ERYTHROCYTE COUNT [4]: 6.53 x10E6/uL; HEMATOCRIT [4]: 39.67%; HEMOGLOBIN [4]: 15.9 G/DL; LEUKOCYTE COUNT [4]: 17.33 x10E3/uL; LYMPHOCYTE [4]: 84.67%; MEAN CORPUSCULAR HEMOGLOBIN [4]: 24.4 pg; MEAN CORPUSCULAR HEMOGLOBIN CONCENTRATION [4]: 40.13 G/DL; MEAN CORPUSCULAR VOLUME [4]: 60.83 fL; MONOCYTE [4]: 4.33%; NEUTROPHIL [4]: 11%; NUCLEATED RED BLOOD CELLS [4]: 0 /100WBC; PLATELET COUNT [4]: 1382.33 x10E3/uL; ALANINE AMINOTRANSFERASE [4]: 67 u/L; ALBUMIN [4]: 3.7 G/DL; ALKALINE PHOSPHATASE [4]: 311.67 u/L; ASPARTATE AMINOTRANSFERASE [4]: 107.33 u/L; BLOOD UREA NITROGEN [4]: 13.67 mg/dL; CARBON DIOXIDE [4]: 29 mmol/L; CHLORIDE [4]: 100 MEQ/L; CHOLESTEROL [4]: 107.67 mg/dL; CREATINE PHOSPHOKINASE [4]: 532.67 u/L; CREATININE [4]: 0.21 mg/dL; GLUCOSE [4]: 130.33 mg/dL; LACTATE DEHYDROGENASE [4]: 259.67 u/L; LIPASE [4]: 9.33 u/L; PHOSPHORUS [4]: 9.97 mg/dL; POTASSIUM [4]: 9.14 MEQ/L; SODIUM [4]: 141.8 MEQ/L; TOTAL BILIRUBIN [4]: 0.1 mg/dL; TOTAL PROTEIN [4]: 6.13 G/DL; URIC ACID [4]: 1.27 mg/dL
